The results in this text go back to patent US8853230B2, “Inhibitors of JAK” (Portola Pharmaceuticals, Inc., priority 2009, dated 2014).

Assay type in all cases: biochemical
One assay deals with T1, JAK3 (Homo sapiens, UniProt P52333).
T1 construct: 5 μl of catalytic domain recombinant Kinase enzyme+Tyr peptide substrate (Invitrogen, Calif.); purchased Invitrogen
In words: Z'-LYTE kinase assay, JAK3 tyrosine phosphorylation activity. Summed up: (§1)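 FRET-based Z′-LYTE format with recombinant catalytic-domain kinases and Tyr6 peptide substrate; compounds in 1% DMSO final, duplicate wells. Kinase reaction with ATP runs 1 h at room temperature, then protease development 1 h; fluorescence read at ex 400, em 445/520 nm. IC50 from 4-parameter logistic fit of percent phosphorylation versus uninhibited.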

The target in a further assay is T2, TYK2 (Homo sapiens, UniProt P29597).
T2 construct: 5 μl of catalytic domain recombinant Kinase enzyme+Tyr peptide substrate (Invitrogen, Calif.); purchased Invitrogen
T2 sequence (P29597 897-1176 limits assumed): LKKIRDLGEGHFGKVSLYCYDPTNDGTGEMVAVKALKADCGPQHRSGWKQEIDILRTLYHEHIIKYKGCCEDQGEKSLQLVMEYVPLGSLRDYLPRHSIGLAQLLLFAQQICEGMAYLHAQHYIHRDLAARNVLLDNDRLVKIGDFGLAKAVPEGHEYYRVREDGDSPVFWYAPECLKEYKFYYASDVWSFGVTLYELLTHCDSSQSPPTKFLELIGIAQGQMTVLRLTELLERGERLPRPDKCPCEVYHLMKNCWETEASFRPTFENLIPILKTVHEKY
In words: Z'-LYTE kinase assay, TYK2 tyrosine phosphorylation activity. Summed up:
as §1

A further assay has as its target T3, JAK2 (Homo sapiens, UniProt O60674).
T3 construct: 5 μl of catalytic domain recombinant Kinase enzyme+Tyr peptide substrate (Invitrogen, Calif.); purchased Invitrogen
In words: Z'-LYTE kinase assay, JAK2 tyrosine phosphorylation activity. The method in brief: as §1

The next assay has as its target T4, JAK1 (Homo sapiens, UniProt P23458).
T4 construct: 5 μl of catalytic domain recombinant Kinase enzyme+Tyr peptide substrate (Invitrogen, Calif.); purchased Invitrogen
In words: Z'-LYTE kinase assay, JAK1 tyrosine phosphorylation activity. The conditions noted are these: read-out: JAK 1 IC50. Summed up:
as §1

T1 sequence (P52333 822-1111 limits assumed): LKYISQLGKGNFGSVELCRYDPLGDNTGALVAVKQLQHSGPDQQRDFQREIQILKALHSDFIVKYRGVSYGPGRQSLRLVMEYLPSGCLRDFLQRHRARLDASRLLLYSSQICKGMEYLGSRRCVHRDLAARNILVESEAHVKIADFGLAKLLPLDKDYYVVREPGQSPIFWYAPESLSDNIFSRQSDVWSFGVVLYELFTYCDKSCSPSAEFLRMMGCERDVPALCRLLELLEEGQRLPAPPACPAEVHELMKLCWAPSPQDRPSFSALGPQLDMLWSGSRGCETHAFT
T3 sequence (O60674 849-1124 limits assumed): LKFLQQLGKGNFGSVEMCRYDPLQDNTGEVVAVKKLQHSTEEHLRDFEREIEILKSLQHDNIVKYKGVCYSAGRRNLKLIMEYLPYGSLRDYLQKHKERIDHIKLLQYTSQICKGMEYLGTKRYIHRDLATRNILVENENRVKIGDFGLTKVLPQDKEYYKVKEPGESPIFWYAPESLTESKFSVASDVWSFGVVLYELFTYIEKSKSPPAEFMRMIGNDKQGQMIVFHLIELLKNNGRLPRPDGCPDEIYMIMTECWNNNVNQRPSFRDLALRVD
T4 sequence (P23458 875-1153 limits assumed): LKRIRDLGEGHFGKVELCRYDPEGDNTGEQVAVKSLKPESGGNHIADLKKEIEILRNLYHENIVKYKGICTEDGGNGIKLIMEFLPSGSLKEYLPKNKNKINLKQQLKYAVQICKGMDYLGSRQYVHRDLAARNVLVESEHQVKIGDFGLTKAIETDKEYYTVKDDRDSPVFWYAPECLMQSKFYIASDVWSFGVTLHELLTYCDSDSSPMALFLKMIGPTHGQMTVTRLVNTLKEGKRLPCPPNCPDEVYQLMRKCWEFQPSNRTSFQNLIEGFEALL

As to `CC(=O)Nc1cc(Nc2ncc(C(N)=O)c(Nc3cccc4nn(C)cc34)n2)ccc1OCCN(C)C` [Example 229, 2-(3-acetamido-4-(2-(dimethylamino)ethoxy)phenylamino)-4-(2-methyl-2H-indazol-4-ylamino)pyrimidine-5-carboxamide], the IC50 is 10 to 100 nM at JAK3, 100 to 1000 nM on TYK2, 10 to 100 nM against JAK2 and above 1000 nM on JAK1.
Take `CC(=O)Nc1cc(Nc2ncc(C(N)=O)c(Nc3cccc4nsnc34)n2)ccc1OCCN(C)C` [Example 230, 2-(3-acetamido-4-(2-(dimethylamino)ethoxy)phenylamino)-4-(benzo[c][1,2,5]thiadiazo-4-ylamino)pyrimidine-5-carboxamide]: the IC50 against JAK3 lay in the range of 1 to 10 nM; against TYK2 it was 10 to 100 nM; on JAK2 it was 1 to 10 nM; at JAK1, 10 to 100 nM.
For `CC(=O)Nc1cccc(Nc2ncc(C(N)=O)c(NCC(C)C)n2)c1` [Example 235, 2-(3-acetamidophenylamino)-4-(isobutylamino)pyrimidine-5-carboxamide], the IC50 lay in the range of 1 to 10 nM at JAK3, 1 to 10 nM on TYK2, 10 to 100 nM against JAK2 and 10 to 100 nM on JAK1.
`CC(C)CNc1nc(Nc2ccc(Cl)c(NC(=O)N3CCCC3)c2)ncc1C(N)=O` [Example 236, 2-(4-chloro-3-(pyrrolidine-1-carboxamido)phenylamino)-4-(isobutylamino)pyrimidine-5-carboxamide]: the IC50 on JAK3, against TYK2, on JAK2 and on JAK1 was 10 to 100 nM throughout.
As to `CC[C@@H](C)Nc1nc(Nc2ccc(Cl)c(NC(=O)N3CCCC3)c2)ncc1C(N)=O` [Example 237, (R)-4-(sec-butylamino)-2-(4-chloro-3-(pyrrolidine-1-carboxamido)phenylamino)pyrimidine-5-carboxamide], the IC50 against JAK3 was in the range of 1 to 10 nM; against TYK2, 10 to 100 nM; on JAK2, 10 to 100 nM; on JAK1, 10 to 100 nM.
Take `CC[C@@H](C)Nc1nc(Nc2cccc(NC(C)=O)c2)ncc1C(N)=O` [Example 238, (R)-2-(3-acetamidophenylamino)-4-(sec-butylamino)pyrimidine-5-carboxamide]: the IC50 on JAK3 was below 1 nM; on TYK2, 1 to 10 nM; against JAK2 it was 1 to 10 nM; on JAK1, 1 to 10 nM.
Regarding `COc1ccc(Nc2ncc(C(N)=O)c(NCc3ccccc3)n2)cc1N(C)C(=O)N1CCCC1` [Example 239, 4-(benzylamino)-2-(4-methoxy-3-(N-methylpyrrolidine-1-carboxamido)phenylamino)pyrimidine-5-carboxamide], the IC50 at JAK3 lay within 10 to 100 nM; on TYK2 it was 10 to 100 nM; at JAK2, 10 to 100 nM; on JAK1 it was 100 to 1000 nM.
`COc1ccc(Nc2ncc(C(N)=O)c(NCc3cccc(F)c3)n2)cc1N(C)C(=O)N1CCCC1` [Example 240, 4-(3-fluorobenzylamino)-2-(4-methoxy-3-(N-methylpyrrolidine-1-carboxamido)phenylamino)pyrimidine-5-carboxamide]: the IC50 against JAK3 was 100 to 1000 nM; on TYK2, above 1000 nM; on JAK2, above 1000 nM; at JAK1, above 1000 nM.
In the case of `CN(C(=O)N1CCCC1)c1cc(Nc2ncc(C(N)=O)c(NCc3ccccc3)n2)ccc1Cl` [Example 241, 4-(benzylamino)-2-(4-chloro-3-(N-methylpyrrolidine-1-carboxamido)phenylamino)pyrimidine-5-carboxamide], the IC50 lay in the range of 10 to 100 nM on JAK3, 100 to 1000 nM against TYK2, 100 to 1000 nM at JAK2 and 100 to 1000 nM on JAK1.
Regarding `CN(C(=O)N1CCCC1)c1cc(Nc2ncc(C(N)=O)c(NCc3cccc(F)c3)n2)ccc1Cl` [Example 242, 2-(4-chloro-3-(N-methylpyrrolidine-1-carboxamido)phenylamino)-4-(3-fluorobenzylamino)pyrimidine-5-carboxamide], the IC50 is 100 to 1000 nM against JAK3, above 1000 nM at TYK2, above 1000 nM against JAK2 and above 1000 nM on JAK1.
Consider `CC(=O)Nc1cc(Nc2ncc(C(N)=O)c(Nc3cccc4nsnc34)n2)ccc1OCCCN1CCCCC1` [Example 243], for which the IC50 against JAK3 lay in the range of 1 to 10 nM; against TYK2 it was 1 to 10 nM; on JAK2, 1 to 10 nM; at JAK1 it was 10 to 100 nM.
Consider `CC(=O)Nc1cccc(Nc2ncc(C(N)=O)c(N[C@@H](C)C(C)C)n2)c1` [Example 247, (S)-2-(3-acetamidophenylamino)-4-(3-methylbutan-2-ylamino)pyrimidine-5-carboxamide], for which the IC50 on JAK3, on TYK2, on JAK2 and on JAK1 was 10 to 100 nM throughout.
In the case of `CCC(C)CNc1nc(Nc2cccc(NC(C)=O)c2)ncc1C(N)=O` (stereo not drawn) [Example 249, 2-(3-acetamidophenylamino)-4-(2-methylbutylamino)pyrimidine-5-carboxamide], the IC50 was below 1 nM on JAK3, 1 to 10 nM against TYK2, 1 to 10 nM on JAK2 and 10 to 100 nM at JAK1.
As for `CCC(C)CNc1nc(Nc2ccc(Cl)c(NC(=O)N3CCCC3)c2)ncc1C(N)=O` (stereo not drawn) [Example 250], the IC50 lay in the range of 1 to 10 nM at JAK3, 10 to 100 nM against TYK2, 100 to 1000 nM on JAK2 and 10 to 100 nM on JAK1.
In the case of `CC(=O)Nc1cccc(Nc2ncc(C(N)=O)c(NCCC(C)C)n2)c1` [Example 251, 2-(3-acetamidophenylamino)-4-(isopentylamino)pyrimidine-5-carboxamide], the IC50 fell in the range of 1 to 10 nM at JAK3, 1 to 10 nM against TYK2, 10 to 100 nM against JAK2 and 10 to 100 nM on JAK1.
`CC(=O)Nc1cccc(Nc2ncc(C(N)=O)c(N[C@H](C)C(C)C)n2)c1` [Example 252, (R)-2-(3-acetamidophenylamino)-4-(3-methylbutan-2-ylamino)pyrimidine-5-carboxamide]: the IC50 against JAK3 is below 1 nM; at TYK2, below 1 nM; against JAK2, 1 to 10 nM; on JAK1, 1 to 10 nM.
As for `CC(C)[C@@H](C)Nc1nc(Nc2ccc(Cl)c(NC(=O)N3CCCC3)c2)ncc1C(N)=O` [Example 253, (R)-2-(4-chloro-3-(pyrrolidine-1-carboxamido)phenylamino)-4-(3-methylbutan-2-ylamino)pyrimidine-5-carboxamide], the IC50 against JAK3 lay in the range of 1 to 10 nM; at TYK2, 1 to 10 nM; against JAK2 it was 10 to 100 nM; on JAK1, 10 to 100 nM.
Turning to `C[C@@H](Nc1nc(Nc2cccc(NC(=O)N3CCN(C)CC3)c2)ncc1C(N)=O)c1ccccc1` [Example 254, (R)-2-(3-(4-methylpiperazine-1-carboxamido)phenylamino)-4-(1-phenylethylamino)pyrimidine-5-carboxamide], the IC50 against JAK3 was 1 to 10 nM; at TYK2 it was 10 to 100 nM; at JAK2, 1 to 10 nM; on JAK1 it was 10 to 100 nM.
`C[C@@H](Nc1nc(Nc2cccc(NC(=O)N3CCOCC3)c2)ncc1C(N)=O)c1ccccc1` [Example 255, (R)—N-(3-(5-carbamoyl-4-(1-phenylethylamino)pyrimidin-2-ylamino)phenyl)morpholine-4-carboxamide]: the IC50 at JAK3 is below 1 nM; against TYK2, 10 to 100 nM; against JAK2, 1 to 10 nM; on JAK1, 10 to 100 nM.
Turning to `CC(=O)Nc1cc(Nc2ncc(C(N)=O)c(Nc3cccc4c3cnn4C)n2)ccc1OCCN1CCCC1` [Example 256, 2-(3-acetamido-4-(2-(pyrrolidin-1-yl)ethoxy)phenylamino)-4-(1-methyl-1H-indazol-4-ylamino)pyrimidine-5-carboxamide], the IC50 was in the range of 1 to 10 nM on JAK3, 10 to 100 nM on TYK2, 1 to 10 nM against JAK2 and 10 to 100 nM on JAK1.
`N#CCC(=O)Nc1cccc(Nc2ncc(C(N)=O)c(NCc3cccc(F)c3)n2)c1` [Example 257, 2-(3-(2-cyanoacetamido)phenylamino)-4-(3-fluorobenzylamino)-pyrimidine-5-carboxamide]: the IC50 at JAK3 was below 1 nM; against TYK2 it was 1 to 10 nM; on JAK2 it was 1 to 10 nM; at JAK1, 10 to 100 nM.
`CN1CCN(C(=O)Nc2cccc(Nc3ncc(C(N)=O)c(NCc4cccc(F)c4)n3)c2)CC1` [Example 258, 4-(3-fluorobenzylamino)-2-(3-(4-methylpiperazine-1-carboxamido)phenylamino)pyrimidine-5-carboxamide]: the IC50 against JAK3 was below 1 nM; at TYK2, 1 to 10 nM; against JAK2, 1 to 10 nM; at JAK1, 10 to 100 nM.
Consider `NC(=O)c1cnc(Nc2cccc(NC(=O)N3CCOCC3)c2)nc1NCc1cccc(F)c1` [Example 259], for which the IC50 lay within 1 to 10 nM against JAK3, 1 to 10 nM at TYK2, 1 to 10 nM at JAK2 and 10 to 100 nM at JAK1.
Regarding `CC(=O)Nc1cc(Cl)cc(Nc2ncc(C(N)=O)c(NCc3ccccc3)n2)c1` [Example 260, 2-(3-acetamido-5-chlorophenylamino)-4-(benzylamino)pyrimidine-5-carboxamide], the IC50 against JAK3 was 10 to 100 nM; on TYK2, 10 to 100 nM; at JAK2, 100 to 1000 nM; on JAK1 it was above 1000 nM.
